Patent US5036097A, “Phenylbutyl nitrone compositions and methods for prevention of gastric ulceration” (Oklahoma Medical Research Foundation, priority 1990, dated 1991)
“Also recorded” adds a separate entry of the source.

Assays:
gastric ulceration [1] = assay: NSAID-induced gastric ulceration in rats (surface area of ulceration); assay type: in vivo, rat (male Sprague-Dawley); details: 4 h
Description: Male Sprague-Dawley rats (Charles River, Wilmington, Mass.) weighing 300-325 g were housed individually in wire bottomed cages to prevent ingestion of hair and feces. […] Piroxicam or aspirin and other NSAIDS were suspended in a vehicle of 1% carboxymethylcellulose, 0.1% Tween 80 and 0.15 M HCl, and administered in a volume of 1 ml on the morning of study by oral gavage using an 18 gauge curved blunt needle (Popper and Sons, New Hyde Park, N.Y.). One ml of vehicle alone was administered for control experiments. HCl was added to the vehicle to insure an acid environment in the stomach in all studies. […] Four hours after the administration of NSAID or vehicle, rats were euthanized with sodium pentobarbital (100 mg/kg IP), and the surface area of ulceration per stomach was quantitated using morphometric techniques. Stomachs were removed, the lumen was exposed by an incision along the radius of greater curvature, and the stomach was washed in phosphate buffered saline. The luminal surface was laid out on a flat surface with gross folds removed by gentle distension. The percentage of surface involved with submucosal hemorrhage was then determined by point counting, as described by Weibel, E. R. Stereological Methods: Practical Methods for Biological Morphometry. […] This was done by tabulation of the percentage of points over ulcerations using a point counting eyepiece graticle (16×16 points in a square format). At the 12X magnification used on the Wild dissecting microscope (Wild-Heerbrugg, Basel, Switzerland), the graticle covered a 1 cm^2 area of the surface. Four to five non-overlapping sampling sites were taken to fully cover the exposed surface. To determine the total luminal surface area, the outline of the outer boundary of the stomach was traced using a transparent acetate sheet, and the area was determined from planimetry. The surface area of ulcerated regions per stomach was then determined by multiplying the surface density of ulceration regions by the luminal surface area of the stomach.
Differences in total luminal surface area in cm^2, surface area of ulcerated regions per stomach and biochemical analyses between each treatment intervention and its corresponding untreated control group are compared using the Mann-Whitney U Test, Dixon, W. J., Massey, F. J., Jr. Introduction to statistical methods, 4th edition. […] In vitro studies are compared using the Student's unpaired T-test, Dixon, W. J., Massey, F. J., Jr. Introduction to statistical methods, 4th edition. […] Values are expressed as mean±SEM. Significance is assumed when P<0.05.
Phenyl N-tert-butyl nitrone is obtained from Aldrich Chemicals, Milwaukee, Wis. All other chemicals and pharmaceuticals are from Sigma Chemical.

[2] = test system: microsomal lipid peroxidation; assay: microsomal lipid peroxidation (liver microsomes); assay type: biochemical; details: 200 μM piroxicam, rat liver microsomes
Description: Studies of Microsomal Lipid Peroxidation. […] Rats are euthanized by CO2 narcosis. The livers are excised rapidly into cold isolation medium containing 0.1M sodium phosphate and 2 mM EDTA, pH 7.4. The tissue is minced and homogenized in 3 ml isolation medium per gram of tissue using a Potter-Elvehjam homogenizer. The homogenate is centrifuged at 17,800 g for 20 min., and the pellet discarded. The supernatant is recentrifuged at 100,000 g for 60 min. The resulting pellet is resuspended in isolation buffer and recentrifuged at 100,000 g for 40 min. The final pellet is resuspended in storage buffer containing 100 mM potassium phosphate, 20% glycerol, 1 mM EDTA, 1 mM DTT and 20 μM butylated hydroxytoluene, pH 7.25. This suspension is frozen under liquid nitrogen and stored at -70° CL until use. Microsomal protein is determined by a modification of the Lowry method of Anderson, M. E. Methods Enzymol 113:548-555 (1985). […] Lipid peroxidation in the 1 ml reaction mixture is measured by mixing with 2 ml TBA reagent and assaying for thiobarbituric acid reactivity by the method of Buege and Aust. Values are expressed as the increase in absorbance at 532 nm ([MUT]) per mg microsomal protein and represent the mean of three replicates.

gastric ulceration [3] = details: rats and mice; cited from earlier work
[4] = test system: gastric biopsies (lipid peroxidation); assay: lipid peroxidation in stomachs (thiobarbituric acid reactivity of gastric punch biopsies); assay type: in vivo, rat; details: 4 h after piroxicam, P<0.05 vs vehicle (0.075±0.004)
Source text: MEASUREMENT OF LIPID PEROXIDATION IN STOMACHS. Lipid peroxidation is studied in piroxicam-and vehicle-treated rat stomachs by measuring thiobarbituric acid (TBA) reactivity of gastric punch biopsies by the method of Buege and Aust Buege, J. A., Aust, S. D. Methods Enzymol 51:302-310 (1978). Four hours after piroxicam or vehicle, stomachs are opened along the radius of greater curvature, washed with ice cold normal saline, and spread along a flat surface with lumens exposed. Five punch biopsies from mucosal through serosal surfaces are taken from each stomach using a 3 mm diameter skin biopsy punch. Biopsies are taken over ulcers in piroxicam treated stomachs and randomly over gastric rugae (where ulcers occur) in vehicle control stomachs. Biopsies from each stomach are combined, homogenized on ice in 1 ml of cold 1.15% KCl, and mixed with 2 ml of TBA reagent (0.375% thiobarbituric acid and 15% trichloroacetic acid in 0.25 HCl, to which 0.01% butylated hydroxytoluene is added just prior to use). After incubation at 100° C. for 15 minutes, the mixture is cooled and centrifuged at 1,500 g for 10 min. The absorbance of the supernatant is measured at 532 nm, and results expressed as […] per stomach.

[5] = test system: mitochondrial respiration; assay: generation of O2- by mitochondrial respiration; assay type: biochemical, rat
[6] = test system: mitochondrial respiration; assay: mitochondrial respiration (liver mitochondria); assay type: biochemical, rat
Description: Studies of Mitochondrial Respiration.
Rat liver mitochondria are prepared using the method of Lai and Clark Methods Enzymol 55:51-60 (1979). The livers are excised rapidly into ice cold isolation medium containing 0.25M sucrose, 10 mM tris(hydroxymethyl)aminomethane (Tris), 0.25% bovine serum albumin (fatty acid free), and 0.5 mM potassium EDTA, pH 7.4. The tissue is minced and rinsed three times in cold isolation medium. The minced tissue is placed in a Dounce homogenizer with 20 ml cold isolation medium, gently homogenized, and diluted with an additional 10 ml of isolation medium. The homogenate is centrifuged at 2,000 g for 3 min., and the resulting supernatant recentrifuged at 12,500 g for 8 min. The crude mitochondrial pellet is suspended in 0.12M mannitol-0.03M sucrose medium containing 3% Ficoll, gently layered onto 20 ml of 6% Ficoll (0.25M mannitol-0.06M sucrose), and centrifuged at 11,500 g for 30 min. The resulting mitochondrial pellet is resuspended in the isolation medium and recentrifuged for 10 min. at 12,500 g. The final pellet is brought to a concentration of 10 to 15 mg of mitochondrial protein per ml with isolation medium. Mitochondrial protein is determined by the Biuret reaction described by Gornall, A. G., et al. Biol Chem 177:751-766 (1949), using bovine serum albumin as a standard. Mitochondrial respiration is measured polarographically in a magnetically stirred chamber at 25° C., using a Clark microelectrode (Diamond Electro-tech, Ann Arbor, Mich.). The incubation medium contains the following (in mM): 5K+, 226 mannitol, 75 sucrose, 5 Tris-phosphate, 10 Tris-Cl, and 0.05 EDTA at pH 7.4. State 4 respiratory rates are determined using both NADH-linked (2.5 mM malate+ 2 mM glutamate) and FADH2 -lined (10 mM succinate) substrates, with 5 mM KCl at pH 7.0. State 3 respiration rates are measured after stimulation with 1.5 mM ADP. Respiratory control ratios are determined as the ratio of State 3 to State 4 respiration after incubation with 0, 50, 100 and 200 μM piroxicam.

[7] = rat liver mitochondria, 0-200 μM piroxicam

NADPH-dependent microsomal lipid peroxidation [2]: no effect
Compound: CN1C(C(=O)Nc2ccccn2)=C(O)c2ccccc2S1(=O)=O [piroxicam]
gastric ulceration, in words (gastric ulceration [1]; oral gavage, 23 mg/kg piroxicam, vs vehicle, 23 mg/kg): prominent ulceration along the ridges of gastric rugae; also recorded: consistently produced ulceration; also recorded: profound gastric ulceration
mean ulceration in piroxicam-treated control stomachs (gastric ulceration [1]; piroxicam 23 mg/kg p.o., absence of an intervention): 0.215 cm^2
ulcerogenicity (gastric ulceration [3]): highly ulcerogenic
thiobarbituric acid reactivity, A532 [4]: 0.104±0.010 A532
generation of O2- by mitochondrial respiration [5]: did not increase generation of O2 -
respiratory control ([6]; FADH2-linked and NADH-linked substrates): inhibition of respiratory control
rate of mitochondrial oxygen uptake in the absence of ADP (State 4) [6, 7]: increases the rate of mitochondrial oxygen uptake
stimulation of respiration by ADP (State 3) [6, 7]: lost in the presence of piroxicam
